Laboratory results taken from ChEMBL document CHEMBL1158790, “Pseudopyronines A and B, alpha-pyrones produced by a marine Pseudomonas sp. F92S91, and evidence for the conversion of 4-hydroxy-alpha-pyrone to 3-furanone” (J Nat Prod, 2005).
Activity calls are given as the source filed them. The rule behind the calls is not given here.

Test system: Saccharomyces cerevisiae
Assay: Antifungal activity against Saccharomyces cerevisiae
Format: functional, organism-based

CCCCCCCC1=CC(=O)C(O)(CCCCCC)O1 (stereo unspecified)
Activity: inactive
